Target: T1, human ANO6 (variant 5) (Homo sapiens, UniProt Q4KMQ2)
T1 construct: expressing human ANO6 (variant 5; NP_001191732.1); expressed in transfected cells; host or cells: Fischer rat thyroid (FRT) cells
T1 sequence (Q4KMQ2 1-931 isoform Q4KMQ2-2): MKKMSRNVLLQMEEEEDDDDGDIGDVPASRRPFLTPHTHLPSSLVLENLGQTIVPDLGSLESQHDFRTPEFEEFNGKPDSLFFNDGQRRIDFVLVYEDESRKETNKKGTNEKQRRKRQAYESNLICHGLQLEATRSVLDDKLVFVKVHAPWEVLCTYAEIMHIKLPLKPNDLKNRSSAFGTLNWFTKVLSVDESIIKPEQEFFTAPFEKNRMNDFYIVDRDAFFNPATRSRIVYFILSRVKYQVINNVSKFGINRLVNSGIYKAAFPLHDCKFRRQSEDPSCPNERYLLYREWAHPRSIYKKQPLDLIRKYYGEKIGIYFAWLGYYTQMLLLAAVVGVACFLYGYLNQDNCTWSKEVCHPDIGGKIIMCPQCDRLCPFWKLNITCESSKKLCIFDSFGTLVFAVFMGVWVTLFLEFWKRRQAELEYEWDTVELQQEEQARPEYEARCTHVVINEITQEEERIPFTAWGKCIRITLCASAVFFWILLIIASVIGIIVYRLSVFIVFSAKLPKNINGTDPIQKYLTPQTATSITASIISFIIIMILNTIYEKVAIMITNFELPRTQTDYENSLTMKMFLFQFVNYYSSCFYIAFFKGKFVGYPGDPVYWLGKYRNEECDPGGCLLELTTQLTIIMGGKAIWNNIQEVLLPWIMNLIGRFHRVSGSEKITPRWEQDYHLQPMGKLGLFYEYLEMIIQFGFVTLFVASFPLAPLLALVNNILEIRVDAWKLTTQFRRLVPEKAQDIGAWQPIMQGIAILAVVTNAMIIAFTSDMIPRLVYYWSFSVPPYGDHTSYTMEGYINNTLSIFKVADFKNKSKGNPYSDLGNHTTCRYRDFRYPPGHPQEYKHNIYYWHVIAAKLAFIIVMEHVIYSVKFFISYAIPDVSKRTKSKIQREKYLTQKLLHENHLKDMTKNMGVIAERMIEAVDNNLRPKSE
Experiment: Lact C2 Assay (Measuring Phosphatidylserine Externalization Scramblase Function), ionomycin-treated Fischer rat thyroid (FRT) cells expressing human ANO6 (variant 5); compounds at 50 nM, 100 nM and 1 μM
Assay type: cell-based
Conditions: 10 μM ionomycin, average of three tests, read-out: % Inhibition (phosphatidylserine externalization inhibitory activity); for inhibition at 0.05 µM: compound at 50 nM; for inhibition at 0.1 µM: compound at 100 nM
Description: Ionomycin (Alomonelab, cat. #I-700), DAPI (Sigma-Aldrich, cat. #D8417), paraformaldehyde (Biosesang, cat. #P2031), Lionheart FX automated fluorescence microscope (BioTek), Gen5™ software program (BioTek), and Image J analysis software program.
Fisher rat thyroid (FRT) cells expressing human ANO6 (variant 5; GenBank accession no. NP_001191732.1) were cultured at 37° C. under 5% Co2 conditions in DMEM/Ham's F-12 (1:1) medium supplemented with 10% Fetal Bovine Serum, 2 mM […], 100 units/mL penicillin, and 100 μg/mL streptomycin.
Fischer Rat Thyroid (FRT) cells (2×10^4 cells/well) expressing human ANO6 (variant 5) were cultured in a 96-well microplate for 24 hours. After the incubation, the cells were treated with compounds dissolved in DMSO to 1% v/v in each well at each concentration (50 nM, 100 nM, and 1 μM) and reacted for 10 minutes. Thereafter, each well was treated with ionomycin to a final concentration of 10 μM, allowed to react for 10 minutes, and then washed with 200 μL PBS. After washing, each well was treated with 50 μL of Lactadherin-C2 (Lact-C2)-GFP mixed in DMEM medium to a final concentration of 500 nM to stain phosphatidylserine, and cultured at 37° C. for 10 minutes. After completion of the reaction, the cells were washed with 200 μL PBS, and fixed with 4% paraformaldehyde for 5 minutes at room temperature. For morphological analysis, DAPI solution was added, and the cells were incubated for 15 minutes, followed by washing with PBS. The fluorescence intensity of Lact-C2-GFP bound to phosphatidylserine on the cell surface was measured using an automated fluorescence microscope. For quantitative analysis of the fluorescence intensity of Lact-C2-GFP, BioTek Gen5™ software and Image J analysis software programs were used.
Phosphatidylserine externalization inhibitory activity (%) by the compound was calculated through the following analysis method. Specifically, the background fluorescence value was subtracted from the measured Lact-C2-GFP fluorescence value, and the fluorescence value of the ionomycin non-treatment group and the ionomycin-treatment group in the same row where each test group was located in a 96-well microplate were calculated. In order to calculate the inhibitory activity (%) by the compound, the relative inhibitory activity was calculated by setting the compound and ionomycin non-treatment group to 100% inhibitory activity and the ionomycin alone treatment group to 0% inhibitory activity. To derive the results, the test was repeated three times, and the average values of the results were classified according to the range below and shown in Table 4 below (A: >60% inhibition, B: 30 to 60% inhibition, N/A: no test).

Row | SMILES | inhibition at 0.05 µM | inhibition at 0.1 µM
1 | Fc1ccc2nc(-c3cccc(Nc4ccc(-c5cccnn5)cn4)c3)[nH]c2c1 [Example 55] | > 60% | > 60%
2 | c1cc(Nc2ncc(-c3ccncn3)cn2)cc(-c2nc3ccccc3[nH]2)c1 [Example 76, N-[3-(1H-benzo[d]imidazol-2-yl)phenyl]-[4,5′-bipyrimidin]-2′-amine] | 30 to 60% | > 60%

From US20260317306A1, “HETEROARYL DERIVATIVE COMPOUND AND USE THEREOF” (S2CBIO INC., priority 2022, published 2026)
